According to ChEMBL document CHEMBL1136916, “Discovery of new S-adenosylmethionine decarboxylase inhibitors for the treatment of Human African Trypanosomiasis (HAT)” (Bioorg Med Chem Lett, 2009):
Calls of active or inactive are those of the source. The rule behind the calls is not given here.

Assays:
[1] = test system: Trypanosoma brucei; assay: Inhibition of Trypanosoma brucei AdoMetDC assessed as ratio of Kinact to Ki(apparent)
[2] = test system: Trypanosoma brucei rhodesiense; assay: Antitrypanosomal activity against Trypanosoma brucei rhodesiense; assay type: functional, organism-based
[3] = test system: Trypanosoma brucei brucei; assay: Antitrypanosomal activity against Trypanosoma brucei brucei; assay type: functional, organism-based
[4] = Cmax in blood of single dose ip administered mouse; assay type: ADME, organism-based; parameters: route intraperitoneal
[5] = Half life in single dose ip administered mouse; assay type: ADME, organism-based; settings: in vivo
[6] = AUC in blood of single dose ip administered mouse; assay type: ADME, organism-based
[7] = test system: Trypanosoma brucei brucei; assay: Antitrypanosomal activity against Trypanosoma brucei brucei infected mouse assessed as reduction in parasitemia; assay type: functional, organism-based
[8] = AUC in brain of single dose ip administered mouse; assay type: ADME, organism-based
[9] = Cmax in brain of single dose ip administered mouse; assay type: ADME, organism-based; parameters: route intraperitoneal
[10] = Distribution coefficient, log D at pH 7.4 by shake flask method; assay type: physicochemical; settings: octanol/water

Compound | Ratio [1] | IC50 [2] | IC50 [3] | other results
CN(C/C=C\CN)C[C@H]1O[C@@H](n2cnc3c(N)ncnc32)[C@H](F)[C@@H]1O | 0.19 | 1.4 µM | > 14 µM | 
CN(C/C=C\CN)C[C@H]1O[C@@H](n2cnc3c(N)ncnc32)[C@@H](F)[C@@H]1O | 0.19 | 2.6 µM | > 14 µM | 
Cc1nc(N)c2ncn([C@@H]3O[C@H](CN(C)C/C=C\CN)[C@@H](O)[C@H]3O)c2n1 |  |  | > 14 µM | 
Cc1nc2c(N)ncnc2n1[C@@H]1O[C@H](CN(C)C/C=C\CN)[C@@H](O)[C@H]1O | 7.78 | 0.001 µM | 0.027 µM | Cmax [4]: 36900 ng/mL; half-life [5]: 7.43 h; AUC [6]: 17900 ng·h/mL; Activity [7]: Active; AUC [8]: 1300 ng·h/mL; Cmax [9]: 660 ng/mL
CN(C/C=C\CN)C[C@H]1O[C@@H](n2cnc3c(N)nc(Cl)nc32)[C@H](O)[C@@H]1O | 0.02 | 1.7 µM | 7.27 µM | 
CN(C/C=C\CN)C[C@H]1O[C@@H](n2cnc3c(N)ncnc32)[C@H](O)[C@@H]1O | 1.5 | 0.011 µM | 0.21 µM | logD [10]: -1.8; Activity [7]: Active
CCc1nc2c(N)ncnc2n1[C@@H]1O[C@H](CN(C)C/C=C\CN)[C@@H](O)[C@H]1O |  |  | 0.9 µM | 
CCCc1nc2c(N)ncnc2n1[C@@H]1O[C@H](CN(C)C/C=C\CN)[C@@H](O)[C@H]1O |  |  | 11.1 µM | 
